Molecules are shown by their SMILES. Active and inactive are the calls of the source. No cut-off for these calls is given here.

Consider 15 molecules from ChEMBL document CHEMBL2331162, “Biophysical fragment screening of the β1-adrenergic receptor: identification of high affinity arylpiperazine leads using structure-based drug design” (J Med Chem, 2013).

Assay [1] deals with Beta-1 adrenergic receptor (Homo sapiens, UniProt P08588). Nature of the assay: Displacement of [3H]dihydroalprenolol from human wild type beta1 adrenergic receptor expressed in HEK293 cell membranes after 90 mins by liquid scintillation counting analysis. (In general: Loss of bound radioactivity is the signal in a displacement assay; it reports binding, not function.)
Assay [2] has as its target T1, Muscarinic acetylcholine receptor M1 (Homo sapiens) (UniProt P11229).
T1 sequence (whole entry): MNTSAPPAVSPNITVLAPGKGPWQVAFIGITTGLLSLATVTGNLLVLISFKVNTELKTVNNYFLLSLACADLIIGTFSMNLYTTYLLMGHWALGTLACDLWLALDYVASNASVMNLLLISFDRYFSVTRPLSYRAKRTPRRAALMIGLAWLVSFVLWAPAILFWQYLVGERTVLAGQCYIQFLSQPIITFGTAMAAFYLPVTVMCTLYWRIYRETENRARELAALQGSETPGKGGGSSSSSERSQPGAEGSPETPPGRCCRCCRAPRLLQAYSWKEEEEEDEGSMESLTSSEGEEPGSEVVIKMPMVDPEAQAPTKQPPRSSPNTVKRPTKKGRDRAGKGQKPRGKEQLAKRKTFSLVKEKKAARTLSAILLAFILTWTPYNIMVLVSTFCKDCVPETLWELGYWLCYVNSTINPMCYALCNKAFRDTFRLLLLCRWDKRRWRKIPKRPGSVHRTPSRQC
Nature of the assay: Agonist activity at human muscarinic M1 receptor expressed in CHO cells assessed as stimulation of ERK1/2 phosphorylation after 15 mins by Alphascreen Surefire assay. It counts as cell-based. A general note: Alpha assays give light when donor and acceptor beads are brought close together.

Assay [3] has as its target T2, Muscarinic acetylcholine receptor M2 (Homo sapiens, UniProt P08172).
T2 sequence (P08172 whole entry): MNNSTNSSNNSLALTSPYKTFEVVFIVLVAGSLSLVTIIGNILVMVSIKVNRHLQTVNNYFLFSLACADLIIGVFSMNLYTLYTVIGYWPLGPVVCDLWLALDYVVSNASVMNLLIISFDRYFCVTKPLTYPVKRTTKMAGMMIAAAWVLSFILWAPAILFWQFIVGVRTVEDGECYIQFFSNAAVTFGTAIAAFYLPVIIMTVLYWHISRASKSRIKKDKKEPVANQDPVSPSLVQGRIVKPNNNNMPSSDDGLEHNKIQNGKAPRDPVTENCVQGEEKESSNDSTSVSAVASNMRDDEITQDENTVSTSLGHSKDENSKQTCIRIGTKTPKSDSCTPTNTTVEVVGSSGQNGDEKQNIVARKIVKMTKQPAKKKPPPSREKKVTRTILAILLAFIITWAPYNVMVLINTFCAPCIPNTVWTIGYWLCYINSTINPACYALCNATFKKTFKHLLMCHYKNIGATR
Nature of the assay: Displacement of [3H]-NMS from recombinant muscarinic M2 receptor (unknown origin) expressed in CHOK1 cells after 60 mins by liquid scintillation counting analysis. It counts as cell-based, CHO-K1.

Assay [4] deals with T3, Muscarinic acetylcholine receptor M4 (Homo sapiens) (UniProt P08173).
T3 sequence (whole entry): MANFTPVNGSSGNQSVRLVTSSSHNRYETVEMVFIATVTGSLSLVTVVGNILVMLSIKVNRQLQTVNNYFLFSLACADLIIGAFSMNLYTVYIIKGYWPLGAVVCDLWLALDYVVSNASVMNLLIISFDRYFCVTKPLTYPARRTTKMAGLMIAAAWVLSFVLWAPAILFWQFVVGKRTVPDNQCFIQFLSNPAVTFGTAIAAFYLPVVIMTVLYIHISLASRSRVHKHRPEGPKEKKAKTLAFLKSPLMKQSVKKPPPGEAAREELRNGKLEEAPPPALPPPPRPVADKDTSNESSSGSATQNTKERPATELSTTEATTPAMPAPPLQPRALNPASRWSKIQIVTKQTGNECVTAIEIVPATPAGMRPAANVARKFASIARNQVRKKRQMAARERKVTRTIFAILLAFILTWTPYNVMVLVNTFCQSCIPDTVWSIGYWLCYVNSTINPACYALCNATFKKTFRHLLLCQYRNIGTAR
Nature of the assay: Agonist activity at human muscarinic M4 receptor expressed in CHO cells assessed as stimulation of ERK1/2 phosphorylation after 15 mins by Alphascreen Surefire assay. The assay is classed as cell-based.

For assay [5], the target named is T4, Muscarinic acetylcholine receptor M2 (Homo sapiens) (UniProt P08172).
T4 sequence (whole entry): T2 sequence (P08172 whole entry)
Nature of the assay: Agonist activity at human muscarinic M2 receptor expressed in CHO cells assessed as stimulation of ERK1/2 phosphorylation after 15 mins by Alphascreen Surefire assay. It counts as cell-based.

In assay [6] the target is T5, Muscarinic acetylcholine receptor M3 (Homo sapiens, UniProt P20309). Nature of the assay: Agonist activity at human muscarinic M3 receptor expressed in CHO cells assessed as stimulation of ERK1/2 phosphorylation after 15 mins by Alphascreen Surefire assay. The assay is classed as cell-based.
Target sequence in this assay (P20309 whole entry, looked up): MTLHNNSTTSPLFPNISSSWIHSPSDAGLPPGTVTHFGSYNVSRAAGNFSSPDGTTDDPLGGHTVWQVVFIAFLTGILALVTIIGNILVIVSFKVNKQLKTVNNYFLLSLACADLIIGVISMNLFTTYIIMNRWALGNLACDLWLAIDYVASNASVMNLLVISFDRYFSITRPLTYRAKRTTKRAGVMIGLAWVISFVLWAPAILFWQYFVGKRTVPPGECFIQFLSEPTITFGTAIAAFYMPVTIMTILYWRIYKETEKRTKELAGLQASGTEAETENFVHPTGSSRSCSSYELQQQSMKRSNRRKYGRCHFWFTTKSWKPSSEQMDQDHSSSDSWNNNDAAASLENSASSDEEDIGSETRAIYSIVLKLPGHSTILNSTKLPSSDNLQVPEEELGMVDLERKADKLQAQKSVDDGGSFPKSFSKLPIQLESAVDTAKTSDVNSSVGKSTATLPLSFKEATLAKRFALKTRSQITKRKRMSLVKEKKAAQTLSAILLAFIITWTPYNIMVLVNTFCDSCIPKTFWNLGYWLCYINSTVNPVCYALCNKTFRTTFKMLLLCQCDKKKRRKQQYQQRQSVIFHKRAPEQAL
Assay [7] has as its target T6, Muscarinic acetylcholine receptor M4 (Homo sapiens, UniProt P08173).
T6 sequence (P08173 whole entry): T3 sequence (whole entry)
Nature of the assay: Displacement of [3H]-NMS from recombinant muscarinic M4 receptor (unknown origin) expressed in CHOK1 cells after 60 mins by liquid scintillation counting analysis. The assay is classed as cell-based, CHO-K1.

Assay [8] deals with T5, Muscarinic acetylcholine receptor M3. Nature of the assay: Displacement of [3H]-NMS from recombinant muscarinic M3 receptor (unknown origin) expressed in CHOK1 cells after 60 mins by liquid scintillation counting analysis. It counts as cell-based, CHO-K1.
Target sequence in this assay (P20309 whole entry): as the sequence (P20309 whole entry, looked up) above

Chain of Beta-1 adrenergic receptor (P08588 whole entry): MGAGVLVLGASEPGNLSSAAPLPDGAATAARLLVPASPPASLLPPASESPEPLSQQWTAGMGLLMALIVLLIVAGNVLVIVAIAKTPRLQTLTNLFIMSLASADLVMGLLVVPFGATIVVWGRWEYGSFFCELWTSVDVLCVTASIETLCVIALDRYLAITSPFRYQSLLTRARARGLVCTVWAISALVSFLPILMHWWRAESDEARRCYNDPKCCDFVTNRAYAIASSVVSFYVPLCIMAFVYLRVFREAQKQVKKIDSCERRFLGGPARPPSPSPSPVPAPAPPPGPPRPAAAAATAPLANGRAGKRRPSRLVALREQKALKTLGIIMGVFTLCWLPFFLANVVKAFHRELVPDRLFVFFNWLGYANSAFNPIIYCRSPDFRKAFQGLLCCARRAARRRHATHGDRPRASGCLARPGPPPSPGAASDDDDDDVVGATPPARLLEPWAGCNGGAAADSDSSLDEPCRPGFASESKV

For the molecule `FC(F)(F)c1ccnc(N2CCNCC2)c1`, in assay [1], the Ki (as a rule, a measure of affinity in units of concentration, obtained from inhibition or displacement) is 2340 nM.

As for `c1csc(-c2cccc3ccc(N4CCNCC4)nc23)c1`, in assay [1], the affinity, expressed as Ki, was 251 nM.

For the molecule `Cc1ccc(N2CCNCC2)cc1C`, in assay [1], the Ki is 741 nM.

With `c1cc(N2CCNCC2)c2cc[nH]c2c1`, the outcome in assay [2], in assay [4], in assay [5] and in assay [6] was inactive. The Ki was more than 20000 nM in assay [3] and 67.6 nM in assay [1].

`Clc1cccc(N2CCNCC2)c1Cl`: the result in assay [2], in assay [4], in assay [5] and in assay [6] was inactive. In addition, the Ki in assay [3] was more than 20000 nM; in assay [1] it was 107 nM.

Regarding `Cc1cc(N2CCNCC2)nc2ccccc12`, the outcome in assay [2], in assay [4], in assay [5] and in assay [6] was inactive. The values for the Ki in assay [3] and in assay [1] were more than 20000 nM and 224 nM, respectively.

Take `FC(F)(F)c1ccnc(N2CCNCC2)n1`: in assay [1], the affinity, expressed as Ki, was 2510 nM.

As for `FC(F)(F)c1cc(N2CCNCC2)cc(C(F)(F)F)c1`, the Ki in assay [1] was 1260 nM.

As for `COc1cc(OC)cc(N2CCNCC2)c1`, the Ki in assay [1] is 1580 nM.

In turn, `Clc1ccc(N2CCNCC2)cc1Cl` showed a Ki in assay [1] of 214 nM.

Take `Cc1cccc(N2CCNCC2)c1C`: in assay [1], the affinity corresponds to a Ki of 537 nM.

Molecule `Cc1nc(N2CCNCC2)c2c3c(sc2n1)CC(C)CC3` (stereo unspecified) gave a Ki in assay [1] of 676 nM.

`CSc1nc(N2CCNCC2)c2sc3c(c2n1)CCCC3` had a Ki in assay [1] of 200 nM.

On to `Clc1cc(Cl)cc(N2CCNCC2)c1`, for which the outcome in assay [2], in assay [4], in assay [5] and in assay [6] was inactive. For the same molecule, the Ki in assay [7] was 31600 nM; in assay [8] it was 7940 nM; in assay [1] it was 85.1 nM.

In turn, `Cc1cc(N2CCNCC2)c2ccccc2n1` had a Ki in assay [1] of 1580 nM.
